According to publication PMC11062899, “De novo development of small cyclic peptides that are orally bioavailable” (Nature Chemical Biology, 2023):
“And” between values parts separate entries of the source, which are not always exact repeats. Equal values may be shown once. Read-outs that look alike come from different tables or passages of the source.

Tests used:
[1] = Passive artificial membrane permeability (PAMPA); settings: for PAMPA permeability: % permeability: acceptor concentration relative to equilibrium;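 on PAMPA permeability: % permeability: acceptor concentration relative to equilibrium after 12–18 h at 50 µM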
[2] = Metabolic stability in rat liver microsomes (RLMs); settings: for half-life at 10 μM / microsomal CLint at 10 μM: rat
[3] = molecular target: human α-thrombin (Homo sapiens, UniProt P00734); test: Protease inhibition, Ki for human α-thrombin (fluorogenic substrate Z-Gly-Gly-Arg-AMC); assay type: biochemical; settings: for slope normalized to DMSO, human alpha thrombin inhibition: replicates R1-R3
How it was run: (§1)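 Inhibition was measured as AMC fluorescence from 50 μM substrate, monitored for 30 min at 25 °C, relative to a peptide-free control. Human and rat enzymes were present at 2 nM and 3 nM final, respectively, in 50 mM Tris-HCl pH 7.4, 150 mM NaCl, 10 mM MgCl2, 1 mM CaCl2. Ki derives from fitted IC50 via Cheng–Prusoff.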

[4] = molecular target: T1, rat α-thrombin (Rattus norvegicus, UniProt P18292); test: Protease inhibition, Ki for rat α-thrombin (fluorogenic substrate Z-Gly-Gly-Arg-AMC); assay type: biochemical; settings: for slope normalized to DMSO, rat alpha thrombin inhibition: replicates R1-R3
T1 construct: rat α-thrombin (Molecular Innovations) were used at final concentrations of 2 nM and 3 nM; purchased Molecular Innovations
How it was run: as §1

[5] = rat liver microsomes, individual replicates R1-R3, incubation volume 400 ul, protein 0.5 mg/ml

In the case of `C[C@]12CC[C@H]3[C@@H](CCC4=CC(=O)CC[C@@]43C)[C@@H]1CC[C@@H]2O` [Testosterone, reference compound], the “PAMPA permeability: % permeability” value ([1]; 50 μM, 12–18 h) is reported as 88.2 ± 1.1%, the “TIC value at 0 min” value ([2]; rat liver microsomes, 0 min incubation, LCMS TIC, individual replicates R1-R3, protein 0.5 mg/ml, Ox (+16)/(+32), deMe (-14)/(-28) = mass adducts (metabolites)) is reported as 365657 (2×) and 448878 and the “TIC value at 5 min” value ([2]; rat liver microsomes, 5 min incubation, LCMS TIC, individual replicates R1-R3, protein 0.5 mg/ml) is reported as 76968 and 89225 and 92782. The “TIC value at 15 min” value ([2]; rat liver microsomes, 15 min incubation, LCMS TIC, individual replicates R1-R3, protein 0.5 mg/ml) was 0, the “TIC value at 30 min” value ([2]; rat liver microsomes, 30 min incubation, LCMS TIC, individual replicates R1-R3, protein 0.5 mg/ml) was 0 and the “TIC value at 60 min” value ([2]; rat liver microsomes, 60 min incubation, LCMS TIC, individual replicates R1-R3, protein 0.5 mg/ml) was 0. The “Half Life” value ([2]; rat liver microsomes, individual replicates R1-R3) was 2.29 min and 2.19 min, the “RLM CL” value [2, 5] was 606.56 ul/min/mg protein and 632.01 ul/min/mg protein and the half-life at 10 μM ([2]; microsomes, pH 7.4, Half Life Mean, rat liver microsomes, mean of R1-R3) was 2.23 min. The half-life at 10 μM ([2]; microsomes, pH 7.4, Half Life, rat liver microsomes, individual replicates R1-R3) was 2.21 min, the half-life at 10 μM ([2]; microsomes, pH 7.4, Metabolic stability: Half life T1/2 (min), RLMs, mean and SD, three measurements) was 2.2 ± 0.1 min and the microsomal CLint at 10 μM ([2]; microsomes, pH 7.4, Metabolic stability: RLM CL (ul/min/mg), RLMs, mean and SD, three measurements) was 620 ± 10 µL/min/mg. For the same compound, the microsomal CLint at 10 μM ([2]; microsomes, pH 7.4, RLM CL Mean, rat liver microsomes, mean of R1-R3) was 622 µL/min/mg and the microsomal CLint at 10 μM ([2]; microsomes, pH 7.4, RLM CL, rat liver microsomes, individual replicates R1-R3, incubation volume 400 ul, protein 0.5 mg/ml) was 626 µL/min/mg.
For `CC(=O)CC(c1ccccc1)c1c(O)c2ccccc2oc1=O` (stereo not drawn) [Warfarin, warfarin, reference compound], the “PAMPA permeability: % permeability” value ([1]; 50 μM, 12–18 h) was 50 ± 5%, the Papp at 50 μM ([1]; PAMPA, pH 7.4, PAMPA permeability: logPapp, 50 μM, 12–18 h) was 4.57 ×10⁻⁶ cm/s and the Papp at 50 μM ([1]; PAMPA, pH 7.4, apparent permeability logPapp (PAMPA), 50 μM, pH 7.4, 12–18 h) was 5.01 ×10⁻⁶ cm/s. The “Permeability% Average” value ([1]; PAMPA, average of R1-R3) was 50.0%, the “Permeability% R1” value ([1]; PAMPA, replicate R1, TIC of top well sample relative to sample at theoretical equilibrium) was 48.28% and the “Permeability% R3” value ([1]; PAMPA, replicate R3, TIC of top well sample relative to sample at theoretical equilibrium) was 55.67%. The “CL (ul/min/mg protein) R1” value ([2]; RLM CL, replicate R1) was 3.761 ul/min/mg protein, the “RLM CL” value [2, 5] was 2.64 ul/min/mg protein and the microsomal CLint at 10 μM ([2]; rat liver microsomes, pH 7.4) was 2 µL/min/mg.
In the case of `O=C1C[C@H]2CCCN2C(=O)[C@H](Cc2ccccc2)NC(=O)[C@@H](NC(=O)c2ccc(Cl)cc2F)CCC=CCCCCN1` [compound 45], the Ki ([3]; average of R1-R3, read-out: Ki Average, human alpha thrombin inhibition) is reported as 204 nM, the IC50 ([3]; individual replicates R1-R3, read-out: IC50, human alpha thrombin inhibition) is reported as 273 nM and 252 nM and 268 nM and the Ki ([3]; individual replicates R1-R3, read-out: Ki, human alpha thrombin inhibition) is reported as 210 nM (2×) and 194 nM (2×) and 207 nM (2×). For the same compound, the “slope normalized to DMSO, human alpha thrombin inhibition” value ([3]; peptide 1.00E+02 uM) was 11.3 and 11.6 and 10.6, the “slope normalized to DMSO, human alpha thrombin inhibition” value ([3]; peptide 1.19E-05 uM) was 102.6 and 106.2 and 105.7 and the “slope normalized to DMSO, human alpha thrombin inhibition” value ([3]; peptide 1.22E-02 uM) was 98.0 and 95.4 and 97.5. The “slope normalized to DMSO, human alpha thrombin inhibition” value ([3]; peptide 1.25E+01 uM) was 13.9 and 11.8 and 11.3, the “slope normalized to DMSO, human alpha thrombin inhibition” value ([3]; peptide 1.53E-03 uM) was 101.7 and 103.3 and 104.5 and the “slope normalized to DMSO, human alpha thrombin inhibition” value ([3]; peptide 1.56E+00 uM) was 26.6 and 25.5 (2×). For the same compound, the “slope normalized to DMSO, human alpha thrombin inhibition” value ([3]; peptide 1.91E-04 uM) was 103.0 and 99.2 and 105.0, the “slope normalized to DMSO, human alpha thrombin inhibition” value ([3]; peptide 1.95E-01 uM) was 64.4 and 63.8 and 63.5 and the “slope normalized to DMSO, human alpha thrombin inhibition” value ([3]; peptide 2.38E-05 uM) was 102.9 and 103.4 and 104.0. For the same compound, the “slope normalized to DMSO, human alpha thrombin inhibition” value ([3]; peptide 2.44E-02 uM) was 93.3 and 91.7 and 93.0, the “slope normalized to DMSO, human alpha thrombin inhibition” value ([3]; peptide 2.50E+01 uM) was 12.2 and 11.9 and 11.6 and the “slope normalized to DMSO, human alpha thrombin inhibition” value ([3]; peptide 3.05E-03 uM) was 101.3 and 101.9 and 102.4. The “slope normalized to DMSO, human alpha thrombin inhibition” value ([3]; peptide 3.12E+00 uM) was 19.4 (2×) and 18.4, the “slope normalized to DMSO, human alpha thrombin inhibition” value ([3]; peptide 3.81E-04 uM) was 103.1 and 102.3 and 104.4 and the “slope normalized to DMSO, human alpha thrombin inhibition” value ([3]; peptide 3.91E-01 uM) was 49.6 and 45.7 and 49.0. For the same compound, the “slope normalized to DMSO, human alpha thrombin inhibition” value ([3]; peptide 4.77E-05 uM) was 101.9 and 103.1 and 105.2, the “slope normalized to DMSO, human alpha thrombin inhibition” value ([3]; peptide 4.88E-02 uM) was 85.5 and 84.9 and 86.4 and the “slope normalized to DMSO, human alpha thrombin inhibition” value ([3]; peptide 5.00E+01 uM) was 11.7 and 11.4 and 7.8. The “slope normalized to DMSO, human alpha thrombin inhibition” value ([3]; peptide 6.10E-03 uM) was 99.7 and 99.5 and 102.0, the “slope normalized to DMSO, human alpha thrombin inhibition” value ([3]; peptide 6.25E+00 uM) was 15.9 and 15.6 and 14.9 and the “slope normalized to DMSO, human alpha thrombin inhibition” value ([3]; peptide 7.63E-04 uM) was 102.4 (2×) and 103.3. For the same compound, the “slope normalized to DMSO, human alpha thrombin inhibition” value ([3]; peptide 7.81E-01 uM) was 36.6 and 35.0 and 35.1, the “slope normalized to DMSO, human alpha thrombin inhibition” value ([3]; peptide 9.54E-05 uM) was 103.4 and 102.3 and 101.0 and the “slope normalized to DMSO, human alpha thrombin inhibition” value ([3]; peptide 9.77E-02 uM) was 76.3 and 76.5 and 77.1. For the same compound, the Ki ([4]; average of R1-R3, read-out: Ki Average, rat alpha thrombin inhibition) was 36.4 nM, the IC50 ([4]; individual replicates R1-R3, read-out: IC50, rat alpha thrombin inhibition) was 67 nM and 66.1 nM and 64.2 nM and the Ki ([4]; individual replicates R1-R3, read-out: Ki, rat alpha thrombin inhibition) was 37.1 nM and 36.6 nM and 35.6 nM. For the same compound, the “slope normalized to DMSO, rat alpha thrombin inhibition” value ([4]; peptide 1.00E+02 uM) was 6.9 and 7.8 and 7.9, the “slope normalized to DMSO, rat alpha thrombin inhibition” value ([4]; peptide 1.19E-05 uM) was 99.4 and 99.8 and 100.7 and the “slope normalized to DMSO, rat alpha thrombin inhibition” value ([4]; peptide 1.22E-02 uM) was 80.5 and 81.1 and 80.7. For the same compound, the “slope normalized to DMSO, rat alpha thrombin inhibition” value ([4]; peptide 1.25E+01 uM) was 8.5 and 8.3 (2×), the “slope normalized to DMSO, rat alpha thrombin inhibition” value ([4]; peptide 1.53E-03 uM) was 95.1 and 94.7 (2×) and the “slope normalized to DMSO, rat alpha thrombin inhibition” value ([4]; peptide 1.56E+00 uM) was 12.6 and 12.3 and 12.5. The “slope normalized to DMSO, rat alpha thrombin inhibition” value ([4]; peptide 1.91E-04 uM) was 97.1 (2×) and 95.3, the “slope normalized to DMSO, rat alpha thrombin inhibition” value ([4]; peptide 1.95E-01 uM) was 34.2 and 33.8 and 33.2 and the “slope normalized to DMSO, rat alpha thrombin inhibition” value ([4]; peptide 2.38E-05 uM) was 93.5 and 98.9 and 98.6. The “slope normalized to DMSO, rat alpha thrombin inhibition” value ([4]; peptide 2.44E-02 uM) was 71.8 and 70.1 and 71.0, the “slope normalized to DMSO, rat alpha thrombin inhibition” value ([4]; peptide 2.50E+01 uM) was 8.3 and 8.0 and 8.8 and the “slope normalized to DMSO, rat alpha thrombin inhibition” value ([4]; peptide 3.05E-03 uM) was 90.8 and 91.5 and 91.2. For the same compound, the “slope normalized to DMSO, rat alpha thrombin inhibition” value ([4]; peptide 3.12E+00 uM) was 10.1 (2×) and 10.3, the “slope normalized to DMSO, rat alpha thrombin inhibition” value ([4]; peptide 3.81E-04 uM) was 97.2 and 95.5 and 95.9 and the “slope normalized to DMSO, rat alpha thrombin inhibition” value ([4]; peptide 3.91E-01 uM) was 22.7 and 22.8 and 22.5. The “slope normalized to DMSO, rat alpha thrombin inhibition” value ([4]; peptide 4.77E-05 uM) was 97.5 and 97.4 and 98.2, the “slope normalized to DMSO, rat alpha thrombin inhibition” value ([4]; peptide 4.88E-02 uM) was 57.9 and 58.1 and 57.0 and the “slope normalized to DMSO, rat alpha thrombin inhibition” value ([4]; peptide 5.00E+01 uM) was 8.1 (2×) and 8.0. For the same compound, the “slope normalized to DMSO, rat alpha thrombin inhibition” value ([4]; peptide 6.10E-03 uM) was 75.2 and 85.9 and 86.8, the “slope normalized to DMSO, rat alpha thrombin inhibition” value ([4]; peptide 6.25E+00 uM) was 9.3 (2×) and 10.3 and the “slope normalized to DMSO, rat alpha thrombin inhibition” value ([4]; peptide 7.63E-04 uM) was 94.5 (2×) and 95.4. The “slope normalized to DMSO, rat alpha thrombin inhibition” value ([4]; peptide 7.81E-01 uM) was 16.5 and 16.1 and 16.2, the “slope normalized to DMSO, rat alpha thrombin inhibition” value ([4]; peptide 9.54E-05 uM) was 96.4 and 97.0 and 98.4 and the “slope normalized to DMSO, rat alpha thrombin inhibition” value ([4]; peptide 9.77E-02 uM) was 46.4 and 46.1 and 46.7. For the same compound, the “PAMPA permeability: % permeability” value ([1]; 50 μM, 12–18 h) was 66 ± 14%, the “Permeability% (single replicates R1–R3)” value ([1]; 50 μM, 12 h (Fig. 6d)) was 56.67% and 58.98% and 81.87% and the “Permeability% Average” value ([1]; 50 μM, 12 h (Fig. 6d)) was 65.8%. The Papp at 50 μM ([1]; PAMPA, pH 7.4) was 10.7 ×10⁻⁶ cm/s.
